According to PMC7721897, “Metabolism and pharmacokinetics of a novel polyphenol fatty acid ester phloridzin docosahexaenoate in Balb/c female mice” (Scientific Reports, 2020):

Columns and labels:
[1] = In vitro phase I metabolism with mouse hepatic microsomes and NADPH; assay type: in vitro ADME; details: PZ-DHA 1.1 µM, 100 mM NADPH, 1 h, 37 °C
Description: Figure 2 PZ-DHA undergoes phase I metabolism in the presence of freshly prepared mouse liver microsomes. PZ-DHA (1.1 µM) was incubated with 100 mM NADPH in the presence of mouse liver microsome for 1 h at 37 °C. Metabolites from PZ-DHA (A) hydrolysis, (B) and (C) hydroxylation, and (D) epoxidation were identified.
Mouse hepatic microsomes were freshly isolated from the livers of male C57BL/6 mice, and the entire extraction procedure was carried out at 4 °C. Mouse livers were minced and homogenized in KCl/sucrose phosphate buffer (0.154 M KCl, 0.25 M sucrose in 50 mM potassium phosphate buffer (K2HPO4/KH2PO4) (PPB), pH 7.5). Cell/tissue debris was separated out by centrifuging homogenized livers at 12,000×g for 22 min at 4 °C. The supernatant was collected and centrifuged at 100,000×g for 70 min at 4 °C. The pellet was gently rinsed using 50 mM PPB and resuspended in glycerol/phosphate buffer (20% glycerol (v/v), 80% 0.1 M PPB pH 7.5). The protein concentration was determined using a Bradford assay (R^2 = 1.00), and microsomes were stored at − 80 °C.
Potential in vitro phase I and phase II metabolites of PZ-DHA were detected by incubating PZ-DHA in the presence of freshly-prepared mouse hepatic microsome preparations. Phase I metabolites were determined by incubating 1.1 µM PZ-DHA with 100 mM NADPH in the presence of mouse hepatic microsomes for 1 h at 37 °C. Phase II methylation, glucuronidation, and sulphation of PZ-DHA was determined by incubating 1.1 µM PZ-DHA with 1 mM SAM, 2 mM UDPGA, and 0.5 mM PAPS, respectively, in the presence of freshly prepared mouse hepatic microsome for 1 h at 37 °C (Supplementary information Tables S1–S4). To assess the efficiency of the metabolic process, controls (no PZ-DHA control, no mouse hepatic microsome control and no co-factor control) were incubated in parallel to the test. Reactions were terminated by adding a mixture of 4 mL ice-cold acetonitrile:acetone (80:20) containing 0.05 mg/mL quercetin as the internal standard. Proteins were precipitated by incubating the reaction mixture at 4 °C overnight and separated by centrifuging at 14,000 × g for 15 min at 4 °C. Supernatants were concentrated under nitrogen flush, filtered and PZ-DHA and/or PZ-DHA metabolites were identified using a UPLC-ESI–MS/MS system (Waters Limited, Mississauga, ON, Canada).
(§1) PZ-DHA and/or PZ-DHA metabolites in malignant/non-malignant epithelial cell lysates, in vitro microsome enzyme reaction mixtures, and mouse serum aliquots were determined using UPLC-ESI–MS/MS instrument (Waters Limited, Mississauga, ON, Canada). All mass spectroscopic analyses were performed using mass scan (full-scan, identification of unknowns) and single ion monitoring (SIM; quantification of PZ, DHA, PZ-DHA, and quercetin) modes of a Waters H-class UPLC separations module coupled with a Micromass Quattro micro API MS/MS system and MassLynx V4.0 control software. An Allure biphenyl column (100 mm × 2.1 mm, 1.8 μm, Restek Pure Chromatography, Bellefonte, PA, USA) and a flow rate of 0.3 mL/min were employed. ESI- mode with a capillary voltage of 3000 V and a nebulizer gas (N2) temperature of 375 °C were used. A volume of 2 µL sample was injected.

[2] = In vitro phase II metabolism with mouse hepatic microsomes and SAM, UDPGA or PAPS; assay type: in vitro ADME; details: PZ-DHA 1.1 µM, SAM, 1 h, 37 °C
Description: Figure 3 PZ-DHA undergoes phase II metabolism in the presence of freshly prepared mouse liver microsomes. PZ-DHA (1.1 µM) was incubated with S-(5′-adenosyl)-L-methionine chloride dihydrochloride (1 mM), […] (2 mM) and alamethicin (25 µg/mL) and adenosine 3′-phosphate 5′-phosphosulfate lithium salt, hydrate (0.5 mM) in the presence of mouse liver microsomal enzymes (3 mg/mL) at 37 °C for 1 h. (A) Tri-methylated-PZ-DHA (4,4′,6′-tri-O-methyl-phloridzin docosahexaenoate) (MW = 788.88 g/mol), (B) phloridzin docosahexaenoate-4-O-glucuronide (MW = 923.02 g/mol) and phloridzin docosahexaenoate-4′-O-glucuronide (MW = 923.02 g/mol), and (C) sulfated-PZ-DHA (phloridzin docosahexaenoate-4,4′-di-O-sulphide) metabolite (MW = 906.20 g/mol) were identified.
Mouse hepatic microsomes were freshly isolated from the livers of male C57BL/6 mice, and the entire extraction procedure was carried out at 4 °C. Mouse livers were minced and homogenized in KCl/sucrose phosphate buffer (0.154 M KCl, 0.25 M sucrose in 50 mM potassium phosphate buffer (K2HPO4/KH2PO4) (PPB), pH 7.5). […] The protein concentration was determined using a Bradford assay (R^2 = 1.00), and microsomes were stored at − 80 °C.
Potential in vitro phase I and phase II metabolites of PZ-DHA were detected by incubating PZ-DHA in the presence of freshly-prepared mouse hepatic microsome preparations. Phase I metabolites were determined by incubating 1.1 µM PZ-DHA with 100 mM NADPH in the presence of mouse hepatic microsomes for 1 h at 37 °C. Phase II methylation, glucuronidation, and sulphation of PZ-DHA was determined by incubating 1.1 µM PZ-DHA with 1 mM SAM, 2 mM UDPGA, and 0.5 mM PAPS, respectively, in the presence of freshly prepared mouse hepatic microsome for 1 h at 37 °C (Supplementary information Tables S1–S4). […]
PZ-DHA and/or PZ-DHA metabolites in malignant/non-malignant epithelial cell lysates, in vitro microsome enzyme reaction mixtures, and mouse serum aliquots were determined using UPLC-ESI–MS/MS instrument (Waters Limited, Mississauga, ON, Canada). […]

[3] = Tissue distribution of PZ-DHA and metabolites after intraperitoneal injection; assay type: in vivo, Balb/c female mice; details: PZ-DHA 100 mg/kg intraperitoneal
Description: Figure 5 PZ-DHA and metabolites were detected in various organs of PZ-DHA-treated Balb/c female mice. PZ-DHA (100 mg/kg) was administered by intraperitoneal injection to Balb/c female mice and liver, lungs, kidneys, spleen and brain were harvested. Organs were homogenized and PZ-DHA in (A) liver, kidneys, lungs, spleen, and brain was identified and quantified using a calibration curve. The abundance of (B) 4,4′,6′-tri-O-methyl-phloridzin docosahexaenoate in liver, kidneys, lungs, and serum) and (C) phloridzin docosahexaenoate-4,4′-di-O-sulphide in the liver was determined in PZ-DHA equivalence.
(§2) Pharmacokinetic parameters and in vivo generation of PZ-DHA metabolites were studied using Balb/c female mice. Mice were randomly divided into six groups (n = 4/group) and PZ-DHA (100 mg/kg) was administered by intraperitoneal injection. For each mouse, a single blood collection was performed by cardiac puncture at one of six different time points (t = 15, 30, 60, 90, 120, and 240 min). At the end of blood collection, mice were euthanized by cervical dislocation and organs (liver, lungs, kidneys, spleen, and brain) were harvested. Blood samples were allowed to clot by leaving undisturbed at room temperature for 1 h, and serum was separated by centrifuging at 2000×g for 10 min at 4 °C. The serum was carefully removed and stored on ice until further processing. Serum proteins were precipitated by incubating an aliquot of serum with a mixture of acetonitrile:acetone (80:20) containing 0.1 mg/mL quercetin (internal standard) at 4 °C overnight. The supernatant was separated by centrifuging at 14,000×g for 10 min at 4 °C. Excess solvent was evaporated using nitrogen flush and mixed with methanol and filtered. PZ-DHA-metabolites in the filtrate were identified using a UPLC-ESI–MS/MS (Waters Limited, Mississauga, ON, Canada). Organs were homogenized in PBS (1:5 w/v). Supernatants were collected by centrifugation at 14,000 × g for 15 min at 4 °C. Proteins were precipitated by incubating in acetonitrile:acetone (80:20) containing 0.1 mg/mL quercetin (internal standard) at 4 °C overnight. Supernatants were treated as explained above, and PZ-DHA and/or PZ-DHA-metabolites were identified.

[4] = tested on: mammary carcinoma cells, including MDA-MB-231 and 4T1; parameters: method as in PMID 31473253; details: 20 µM for PZ-DHA; cited from earlier work
[5] = Serum pharmacokinetics after intraperitoneal injection; assay type: in vivo, Balb/c female mice; details: PZ-DHA 100 mg/kg intraperitoneal, serum
Description: Figure 4 Intraperitoneal administration of PZ-DHA results in absorption into the systemic circulation of Balb/c female mice. PZ-DHA (100 mg/kg) was administered by intraperitoneal injection to Balb/c female mice. Blood collection was performed and serum was separated. PZ-DHA was identified and quantified using a calibration curve (R^2 = 0.99) generated using a standard series of PZ-DHA concentrations made in mouse serum. PZ-DHA concentration was plotted against time. The elimination rate of PZ-DHA was determined using a semi-log curve of PZ-DHA concentration vs. time curve.
as §2
A calibration curve (R^2 = 0.99) generated using a standard series of PZ-DHA concentrations prepared in mouse serum (spiked with 0.1 mg/mL quercetin) was used for the quantification of PZ-DHA. The average PZ-DHA concentrations were plotted against time. The maximum serum concentration of serum (Cmax) and the time to reach Cmax (Tmax) were read directly from the graph. The linear trapezoidal method was used to calculate the area under the curve (AUC) from t = 0 to infinity, the biological half-life of PZ-DHA (t1/2), determined using the plotted curve in Graphpad Prism software (version 5; La Jolla, CA, USA). The clearance following IP administration was determined by non-compartmental analysis using the relationship CL/F = D/AUC. The elimination rate constant λ was determined by linear regression of the elimination phase of the semi-log transformed concentration versus time curve. The t1/2 was calculated using the formula 0.693/λ and the volume of distribution Vd/F from the formula Vd/F = CL/(F*λ).

[6] = tested on: mammary carcinoma cells and mammary epithelial cells; assay: Cellular uptake assay, all cell lines together; assay type: cell-based, human and mouse; details: all cell lines, 20 μM, 72 h
Description: Figure 1 Conjugation of PZ with DHA increases the cellular uptake and stability of PZ and DHA. The cells were treated with 20 μM of PZ, DHA or PZ-DHA and cultured for 72 h at 37 °C. Cells were harvested and washed thoroughly using cold PBS. Cells were lysed in cold acetone containing 0.05 mg/mL quercetin, and cell lysates were collected by centrifugation and analyzed by using UPLC-ESI-MS/MS. (A) mean % cellular uptake of PZ, DHA and PZ-DHA. (B) fold increase in intracellular PZ and DHA when conjugated. ANOVA multiple means statistical comparison method was performed and differences among means were compared using Tukey’s test; *p < 0.05. (MDA-MB-231 p = 0.008; MDA-MB-468 p = 0.01; 4T1 p = 0.02; MCF-7 p = 0.01; MCF-10A p = 0.0005).
Cells were seeded at a density of 3 × 10^5 cells (MDA-MB-231, MDA-MB-468, MCF-7, and MCF-10A) or 1 × 10^5 cells (4T1) /T-75 flask. The cells were cultured overnight to promote cell adhesion. Adherent cells were treated with a sub-cytotoxic concentration (20 μM) of PZ, DHA or PZ-DHA and cultured for 72 h at 37 °C. The supernatant was carefully removed, and cell monolayers were washed with cold PBS. Cells were harvested using TrypLE Express and washed thoroughly with cold PBS. The cell pellet was resuspended in 3 mL of cold acetone containing 0.05 mg/mL quercetin as the internal standard, and incubated overnight at 4 °C. Cell lysates were collected by centrifugation at 14,000×g for 15 min at 4 °C and samples were concentrated by evaporating acetone under a stream of nitrogen gas. Dry pellets were reconstituted in methanol and filtered. The sample was analyzed using a UPLC/ESI/MS system. The percentage cell uptake of the total dose was quantified using standard curves of PZ (R^2 = 0.99), DHA (R^2 = 0.98) or PZ-DHA (R^2 = 0.99) made in methanol.
as §1

human plasma proteins = details: ref Boulton et al.; cited from earlier work

Q: Which “phase I metabolite of PZ-DHA identified” value [1] does the source give for `CC/C=C\C/C=C\C/C=C\C/C=C\C/C=C\C/C=C\CCC(=O)OC[C@H]1O[C@@H](Oc2cc(O)cc(O)c2C(=O)CCc2ccc(O)c(O)c2)[C@H](O)[C@@H](O)[C@@H]1O` [3-hydroxy-phloridzin docosahexaenoate] here?
A: identified

Q: Which “phase I metabolite of PZ-DHA identified” value [1] does the source give for `O=C(CCc1ccc(O)c(O)c1)c1c(O)cc(O)cc1O[C@@H]1O[C@H](CO)[C@@H](O)[C@H](O)[C@H]1O` [3-hydroxy-phloridzin] here?
A: identified

Q: Which results are given for `CC/C=C\C/C=C\C/C=C\C/C=C\C/C=C\C/C=C\CCC(=O)OC[C@H]1O[C@@H](Oc2cc(OC)cc(OC)c2C(=O)CCc2ccc(OC)cc2)[C@H](O)[C@@H](O)[C@@H]1O` [4,4′,6′-tri-O-methyl-phloridzin docosahexaenoate]?
A: phase II metabolite of PZ-DHA identified [2]: identified; time at which the metabolite reached the maximum concentration, post-injection ([3]; all organs except for serum): < 1 h; metabolite detection in tissue after PZ-DHA ([3]; liver, lungs, and kidneys): detected; metabolite concentration in serum throughout the experimental period ([3]; serum): remained constant; metabolite detection in tissue after PZ-DHA ([3]; spleen or brain): not found

Q: What does the source list for `CC/C=C\C/C=C\C/C=C\C/C=C\C/C=C\C/C=C\CCC(=O)O` [DHA, docosahexaenoic acid, reference compound]?
A: migration and invasion of mammary carcinoma cells [4]: to a lesser extent than PZ-DHA; phase I metabolite in serum after PZ-DHA [5]: detection; phase I metabolite of PZ-DHA identified [1]: identified; cellular uptake (as a % of the dose), in words [6]: very low

Q: For `O=C(CCc1ccc(O)cc1)c1c(O)cc(O)cc1O[C@@H]1O[C@H](CO)[C@@H](O)[C@H](O)[C@H]1O` [PZ, phloridzin], which “migration and invasion of mammary carcinoma cells” value [4] is on record?
A: to a lesser extent than PZ-DHA

Q: What about the “phase I metabolite in serum after PZ-DHA” value [5] of the same compound?
A: detection

Q: What about the “phase I metabolite of PZ-DHA identified” value [1] of the same compound?
A: identified

Q: What about the “cellular uptake (as a % of the dose), in words” value [6] of the same compound?
A: very low

Q: With `CC/C=C\C/C=C\C/C=C\C/C=C\C/C=C\C/C=C\CCC(=O)OC[C@H]1O[C@@H](Oc2cc(O)cc(O)c2C(=O)CCc2ccc(O[C@@H]3O[C@H](C(=O)O)[C@@H](O)[C@H](O)[C@H]3O)cc2)[C@H](O)[C@@H](O)[C@@H]1O` [phloridzin docosahexaenoate-4-O-glucuronide] as the compound, how does the “phase II metabolite of PZ-DHA identified” value [2] read?
A: identified

Q: For `CC/C=C\C/C=C\C/C=C\C/C=C\C/C=C\C/C=C\CCC(=O)OC[C@H]1O[C@@H](Oc2cc(O[C@@H]3O[C@H](C(=O)O)[C@@H](O)[C@H](O)[C@H]3O)cc(O)c2C(=O)CCc2ccc(O)cc2)[C@H](O)[C@@H](O)[C@@H]1O` [phloridzin docosahexaenoate-4′-O-glucuronide], which “phase II metabolite of PZ-DHA identified” value [2] is on record?
A: identified

Q: Which results are given for `O=c1c(O)c(-c2ccc(O)c(O)c2)oc2cc(O)cc(O)c12` [quercetin]?
A: bound to human plasma proteins (human plasma proteins): 99.1%; freely available in the plasma (human plasma proteins): 0.9%

Q: With tri-epoxy-phloridzin docosahexaenoate as the compound, how does the “phase I metabolite of PZ-DHA identified” value [1] read?
A: identified
